Columns and labels:
[1] = Pharmacokinetic test of MN-08 in clinical trial, single oral dose; type: in vivo, human
Protocol: In the clinical trial of amantadine mononitrate compound MN-08, the pharmacokinetic test included a total of 8 dose groups (6 mg, 12 mg, 42 mg, 60 mg, 78 mg, 96 mg, 114 mg, and 132 mg).
The subjects received a single oral dose of MN-08 at doses of 6 mg, 12 mg, 42 mg, 60 mg, 78 mg, 96 mg, 114 mg, and 132 mg, respectively. […] Most existing antihypertensive drugs have a short half-life and require frequent administration, resulting in poor patient compliance. In contrast, the amantadine mononitrate compound MN-08 of the present invention has a half-life of more than 20 hours, a long drug action time, and can reduce the number of administration times and improve patient compliance compared to other existing hypertensive drugs.

[2] = test system: blood pressure of subjects; experiment: Effect of multiple administration of MN-08 on blood pressure of subjects (3 days); type: in vivo, human
Excerpt: All subjects in the following embodiments have signed informed consent forms, which comply with medical ethics regulations. According to the relevant provisions of Chinese Guidelines for the Prevention and Treatment of Hypertension (2018 Revision), the values measured for hypertension are the average blood pressure measured three times on a different day without the use of antihypertensive drugs. Therefore, in this embodiment, the baseline blood pressure of the subjects before administration is set as the average blood pressure measured at three different times: screening period, occupancy period, and 1 hour before administration, as shown in Tables 1 to 3.
Multiple dosing trials: Participants in each dose group fasted for at least 10 hours before administration, without water deprivation overnight. Each group of subjects took the test drug orally on an empty stomach twice a day (with an interval of 12 hours and at least 1 hour on an empty stomach before the second administration). The first administration time every day is around 8 am, taken with 240 mL of water. Taking subjects 15-17 as an example, the effect of multiple doses of MN-08 (3 days) on subjects' blood pressure was investigated.

For `CCC12CC3CC(N)(C1)CC(CO[N+](=O)[O-])(C3)C2` (stereo not drawn) [MN-08], the half-life ([1]; human, in vivo, po, single oral administration, dose range 6 mg to 132 mg, t1/2 extends with increasing dosage) was 20 to 30 h, the “time at which peak concentration was reached” value ([1]; single oral dose, 6 mg to 132 mg groups) was 2.5 to 6.5 h and the DP ([2]; Subject 15, 12 mg twice a day, D 1, 2 hrs after 2nd adm., baseline 75 mmHg) was 59 mmHg. It also gave an SP ([2]; Subject 15, 12 mg twice a day, D 1, 2 hrs after 2nd adm., baseline 108 mmHg) of 94 mmHg, a DP ([2]; Subject 15, 12 mg twice a day, D 1, 4 hrs after 1st adm., baseline 75 mmHg) of 61 mmHg and an SP ([2]; Subject 15, 12 mg twice a day, D 1, 4 hrs after 1st adm., baseline 108 mmHg) of 96 mmHg. The DP ([2]; Subject 15, 12 mg twice a day, D 1, 8 hrs after 1st adm., baseline 75 mmHg) was 51 mmHg, the SP ([2]; Subject 15, 12 mg twice a day, D 1, 8 hrs after 1st adm., baseline 108 mmHg) was 100 mmHg and the DP ([2]; Subject 15, 12 mg twice a day, D 2, 2 hrs after 2nd adm., baseline 75 mmHg) was 64 mmHg. The SP ([2]; Subject 15, 12 mg twice a day, D 2, 2 hrs after 2nd adm., baseline 108 mmHg) was 95 mmHg, the DP ([2]; Subject 15, 12 mg twice a day, D 2, 4 hrs after 1st adm., baseline 75 mmHg) was 56 mmHg and the SP ([2]; Subject 15, 12 mg twice a day, D 2, 4 hrs after 1st adm., baseline 108 mmHg) was 92 mmHg. For the same molecule, the DP ([2]; Subject 15, 12 mg twice a day, D 2, 8 hrs after 1st adm., baseline 75 mmHg) was 57 mmHg, the SP ([2]; Subject 15, 12 mg twice a day, D 2, 8 hrs after 1st adm., baseline 108 mmHg) was 108 mmHg and the DP ([2]; Subject 15, 12 mg twice a day, D 3, 2 hrs after 2nd adm., baseline 75 mmHg) was 65 mmHg. For the same molecule, the SP ([2]; Subject 15, 12 mg twice a day, D 3, 2 hrs after 2nd adm., baseline 108 mmHg) was 105 mmHg, the DP ([2]; Subject 15, 12 mg twice a day, D 3, 4 hrs after 1st adm., baseline 75 mmHg) was 64 mmHg and the SP ([2]; Subject 15, 12 mg twice a day, D 3, 4 hrs after 1st adm., baseline 108 mmHg) was 95 mmHg. The DP ([2]; Subject 15, 12 mg twice a day, D 3, 8 hrs after 1st adm., baseline 75 mmHg) was 57 mmHg, the SP ([2]; Subject 15, 12 mg twice a day, D 3, 8 hrs after 1st adm., baseline 108 mmHg) was 86 mmHg and the DP ([2]; Subject 16, 24 mg twice a day, D 1, 2 hrs after 2nd adm., baseline 81 mmHg) was 66 mmHg. For the same molecule, the SP ([2]; Subject 16, 24 mg twice a day, D 1, 2 hrs after 2nd adm., baseline 118 mmHg) was 103 mmHg, the DP ([2]; Subject 16, 24 mg twice a day, D 1, 4 hrs after 1st adm., baseline 81 mmHg) was 61 mmHg and the SP ([2]; Subject 16, 24 mg twice a day, D 1, 4 hrs after 1st adm., baseline 118 mmHg) was 97 mmHg. The DP ([2]; Subject 16, 24 mg twice a day, D 1, 8 hrs after 1st adm., baseline 81 mmHg) was 63 mmHg, the SP ([2]; Subject 16, 24 mg twice a day, D 1, 8 hrs after 1st adm., baseline 118 mmHg) was 102 mmHg and the DP ([2]; Subject 16, 24 mg twice a day, D 2, 2 hrs after 2nd adm., baseline 81 mmHg) was 61 mmHg. It also gave an SP ([2]; Subject 16, 24 mg twice a day, D 2, 2 hrs after 2nd adm., baseline 118 mmHg) of 100 mmHg, a DP ([2]; Subject 16, 24 mg twice a day, D 2, 4 hrs after 1st adm., baseline 81 mmHg) of 69 mmHg and an SP ([2]; Subject 16, 24 mg twice a day, D 2, 4 hrs after 1st adm., baseline 118 mmHg) of 106 mmHg. The DP ([2]; Subject 16, 24 mg twice a day, D 2, 8 hrs after 1st adm., baseline 81 mmHg) was 65 mmHg, the SP ([2]; Subject 16, 24 mg twice a day, D 2, 8 hrs after 1st adm., baseline 118 mmHg) was 99 mmHg and the DP ([2]; Subject 16, 24 mg twice a day, D 3, 2 hrs after 2nd adm., baseline 81 mmHg) was 69 mmHg. It also gave an SP ([2]; Subject 16, 24 mg twice a day, D 3, 2 hrs after 2nd adm., baseline 118 mmHg) of 98 mmHg, a DP ([2]; Subject 16, 24 mg twice a day, D 3, 4 hrs after 1st adm., baseline 81 mmHg) of 67 mmHg and an SP ([2]; Subject 16, 24 mg twice a day, D 3, 4 hrs after 1st adm., baseline 118 mmHg) of 107 mmHg. It also gave a DP ([2]; Subject 16, 24 mg twice a day, D 3, 8 hrs after 1st adm., baseline 81 mmHg) of 63 mmHg, an SP ([2]; Subject 16, 24 mg twice a day, D 3, 8 hrs after 1st adm., baseline 118 mmHg) of 95 mmHg and a DP ([2]; Subject 17, 24 mg twice a day, D 1, 2 hrs after 2nd adm., baseline 87 mmHg) of 73 mmHg. It also gave an SP ([2]; Subject 17, 24 mg twice a day, D 1, 2 hrs after 2nd adm., baseline 126 mmHg) of 107 mmHg, a DP ([2]; Subject 17, 24 mg twice a day, D 1, 4 hrs after 1st adm., baseline 87 mmHg) of 81 mmHg and an SP ([2]; Subject 17, 24 mg twice a day, D 1, 4 hrs after 1st adm., baseline 126 mmHg) of 126 mmHg. For the same molecule, the DP ([2]; Subject 17, 24 mg twice a day, D 1, 8 hrs after 1st adm., baseline 87 mmHg) was 66 mmHg, the SP ([2]; Subject 17, 24 mg twice a day, D 1, 8 hrs after 1st adm., baseline 126 mmHg) was 112 mmHg and the DP ([2]; Subject 17, 24 mg twice a day, D 2, 2 hrs after 2nd adm., baseline 87 mmHg) was 63 mmHg. The SP ([2]; Subject 17, 24 mg twice a day, D 2, 2 hrs after 2nd adm., baseline 126 mmHg) was 94 mmHg, the DP ([2]; Subject 17, 24 mg twice a day, D 2, 4 hrs after 1st adm., baseline 87 mmHg) was 73 mmHg and the SP ([2]; Subject 17, 24 mg twice a day, D 2, 4 hrs after 1st adm., baseline 126 mmHg) was 102 mmHg. The DP ([2]; Subject 17, 24 mg twice a day, D 2, 8 hrs after 1st adm., baseline 87 mmHg) was 68 mmHg, the SP ([2]; Subject 17, 24 mg twice a day, D 2, 8 hrs after 1st adm., baseline 126 mmHg) was 115 mmHg and the DP ([2]; Subject 17, 24 mg twice a day, D 3, 2 hrs after 2nd adm., baseline 87 mmHg) was 74 mmHg. For the same molecule, the SP ([2]; Subject 17, 24 mg twice a day, D 3, 2 hrs after 2nd adm., baseline 126 mmHg) was 110 mmHg, the DP ([2]; Subject 17, 24 mg twice a day, D 3, 4 hrs after 1st adm., baseline 87 mmHg) was 70 mmHg and the SP ([2]; Subject 17, 24 mg twice a day, D 3, 4 hrs after 1st adm., baseline 126 mmHg) was 107 mmHg. For the same molecule, the DP ([2]; Subject 17, 24 mg twice a day, D 3, 8 hrs after 1st adm., baseline 87 mmHg) was 76 mmHg, the SP ([2]; Subject 17, 24 mg twice a day, D 3, 8 hrs after 1st adm., baseline 126 mmHg) was 111 mmHg and the “effect on blood pressure of the subjects” value ([2]; continuous administration for 3 days, twice a day, 12 mg and 24 mg groups, decrease in diastolic greater than in systolic pressure) was “can lower the blood pressure”.

From patent publication US20260242330A1, “USE OF AN AMANTADINE MONONITRATE COMPOUND IN MANUFACTURE OF A MEDICAMENT FOR THE PREVENTION AND TREATMENT OF HYPERTENSION” (GUANGZHOU MAGPIE PHARMACEUTICALS CO., LTD., priority 2022, published 2026)
